Experiments:
Assay type in all cases: cell-based
TASK-2 = biological target: T1, TASK-2 (Homo sapiens, UniProt O95279); assay: two-electrode voltage clamp in Xenopus laevis oocytes, […] ranolazine
T1 construct: gene KCNK5
T1 sequence (O95279 1-499): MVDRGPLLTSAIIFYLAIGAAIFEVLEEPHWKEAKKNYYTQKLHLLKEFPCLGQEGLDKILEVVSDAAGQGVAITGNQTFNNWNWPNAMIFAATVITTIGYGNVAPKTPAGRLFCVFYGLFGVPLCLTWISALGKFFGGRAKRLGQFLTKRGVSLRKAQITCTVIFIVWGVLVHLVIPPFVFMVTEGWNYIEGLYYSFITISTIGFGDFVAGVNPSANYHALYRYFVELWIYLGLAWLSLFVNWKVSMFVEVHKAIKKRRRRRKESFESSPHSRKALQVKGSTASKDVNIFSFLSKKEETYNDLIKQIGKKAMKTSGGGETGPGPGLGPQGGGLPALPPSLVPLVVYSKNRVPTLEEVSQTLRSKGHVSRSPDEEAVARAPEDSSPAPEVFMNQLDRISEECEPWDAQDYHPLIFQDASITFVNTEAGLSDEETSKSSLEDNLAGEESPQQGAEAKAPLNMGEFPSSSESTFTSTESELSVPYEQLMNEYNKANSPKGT

TALK-1 = biological target: T2, TALK-1 (Homo sapiens, UniProt Q96T55); assay: as above
T2 construct: gene KCNK16
T2 sequence (Q96T55 1-309): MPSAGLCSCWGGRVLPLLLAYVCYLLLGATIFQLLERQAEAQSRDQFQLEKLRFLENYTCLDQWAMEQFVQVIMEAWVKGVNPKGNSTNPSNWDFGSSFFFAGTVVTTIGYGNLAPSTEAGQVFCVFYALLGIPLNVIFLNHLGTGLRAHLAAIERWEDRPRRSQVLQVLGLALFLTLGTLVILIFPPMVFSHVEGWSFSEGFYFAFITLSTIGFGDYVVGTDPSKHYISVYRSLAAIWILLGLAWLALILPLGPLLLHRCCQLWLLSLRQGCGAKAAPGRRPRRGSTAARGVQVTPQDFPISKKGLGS

TASK-3 = biological target: T3, TASK-3 (Homo sapiens, UniProt Q9NPC2); assay: as above
T3 construct: gene KCNK9
T3 sequence (Q9NPC2 whole entry): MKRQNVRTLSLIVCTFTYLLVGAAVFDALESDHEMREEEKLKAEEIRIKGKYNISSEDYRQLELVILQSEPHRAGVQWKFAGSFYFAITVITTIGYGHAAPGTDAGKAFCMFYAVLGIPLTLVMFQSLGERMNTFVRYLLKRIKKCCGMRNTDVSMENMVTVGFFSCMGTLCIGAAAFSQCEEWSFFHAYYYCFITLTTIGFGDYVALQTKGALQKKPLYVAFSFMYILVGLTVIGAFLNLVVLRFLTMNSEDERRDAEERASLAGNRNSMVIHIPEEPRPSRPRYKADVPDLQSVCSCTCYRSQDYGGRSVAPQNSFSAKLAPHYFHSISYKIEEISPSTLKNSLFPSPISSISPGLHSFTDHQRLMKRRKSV

TASK-1 = biological target: T4, TASK-1 (Homo sapiens, UniProt O14649); assay: whole-cell patch clamp in CHO cells; two-electrode voltage clamp in Xenopus laevis oocytes; pore mutagenesis
T4 construct: gene KCNK3
T4 sequence (O14649 whole entry): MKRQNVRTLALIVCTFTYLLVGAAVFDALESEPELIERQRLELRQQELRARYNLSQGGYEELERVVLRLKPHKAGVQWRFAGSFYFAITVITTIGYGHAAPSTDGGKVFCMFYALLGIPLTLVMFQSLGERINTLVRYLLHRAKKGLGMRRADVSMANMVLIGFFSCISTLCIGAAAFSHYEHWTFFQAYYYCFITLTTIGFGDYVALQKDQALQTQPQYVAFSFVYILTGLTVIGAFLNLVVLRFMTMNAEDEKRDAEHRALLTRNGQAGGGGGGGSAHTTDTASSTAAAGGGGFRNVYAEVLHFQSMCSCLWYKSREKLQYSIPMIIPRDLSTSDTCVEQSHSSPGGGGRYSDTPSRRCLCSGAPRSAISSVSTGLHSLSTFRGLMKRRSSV

TALK-2 = biological target: T5, TALK-2 (Homo sapiens, UniProt Q96T54); assay: two-electrode voltage clamp in Xenopus laevis oocytes, […] ranolazine
T5 construct: gene KCNK17
T5 sequence (Q96T54 1-332): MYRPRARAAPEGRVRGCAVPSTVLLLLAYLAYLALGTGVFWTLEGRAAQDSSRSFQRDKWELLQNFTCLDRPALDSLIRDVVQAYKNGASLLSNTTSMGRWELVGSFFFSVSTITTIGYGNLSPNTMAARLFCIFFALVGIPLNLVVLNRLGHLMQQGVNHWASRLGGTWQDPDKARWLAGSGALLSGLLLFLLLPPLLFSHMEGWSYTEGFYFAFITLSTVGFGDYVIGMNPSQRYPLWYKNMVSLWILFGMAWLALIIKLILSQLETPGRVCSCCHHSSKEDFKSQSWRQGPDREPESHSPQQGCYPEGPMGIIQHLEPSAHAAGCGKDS

Compound: COc1ccccc1OCC(O)CN1CCN(CC(=O)Nc2c(C)cccc2C)CC1 (centres unmarked) [ranolazine]
- inhibition at 300 µM (TASK-2): 30%
- inhibition at 300 µM (TALK-1): 23%
- inhibition at 300 µM (TASK-3): 28.3%
- IC50 (TASK-1): 30.6 µM
- inhibition at 300 µM (TALK-2): 34.9%

From publication PMC6988797, “Antiarrhythmic Properties of Ranolazine: Inhibition of Atrial Fibrillation Associated TASK-1 Potassium Channels” (Frontiers in Pharmacology, 2019)
